Usually MIC50 stands for the lowest concentration that inhibits either 50% of growth or 50% of the strains tested, depending on the study. As a reminder, the MIC is the least concentration at which growth counts as inhibited. Usually IC50 stands for the concentration needed to halve the response being measured. Broadly, the MIC90 is the lowest concentration that inhibits either 90% of growth or 90% of the strains tested, depending on the study.

The values below come from ChEMBL document CHEMBL5260858, “Targeting mycobacterial membranes and membrane proteins: Progress and limitations” (Bioorg Med Chem, 2023).

The structures appear in SMILES notation. In brackets after ≈: the same amount, converted by molar mass. A value given as a limit tells only on which side of the number the result lay.

For assay [1], the system named is Mycobacterium tuberculosis. As to the kind of experiment: Antitubercular activity against Mycobacterium tuberculosis H37Rv assessed as bacterial growth inhibition. The class given is functional.
Assay [2] deals with Mycobacterium tuberculosis. The assay can be described thus: Antitubercular activity against Mycobacterium tuberculosis mc2 7000 assessed as bacterial growth inhibition incubated for 6 days by resazurin based fluorescence assay. The note with it: mc2 7000, 144 h, time 6 day. The assay is classed as functional.
The subject of assay [3] is Mycobacterium tuberculosis. The assay can be described thus: Antimycobacterial activity against Mycobacterium tuberculosis H37Rv assessed as bacterial growth inhibition incubated for 6 days by resazurin dye based assay. The note with it: 144 h, time 6 day. The class given is functional. In general terms: Alamar Blue is a resazurin reagent that responds to reducing activity.

In assay [4] the test system is Mycobacterium tuberculosis. As to the kind of experiment: Antitubercular activity against Mycobacterium tuberculosis H37Rv infected in human HepG2 cells assessed as bacterial growth inhibition incubated for 4 weeks by resazurin reduction microtiter assay. The note with it: HepG2, 672 h. The assay is classed as functional, organism-based.
In assay [5] the test system is Mycobacterium tuberculosis. The assay can be described thus: Antitubercular activity against Mycobacterium tuberculosis H37Rv assessed as bacterial growth inhibition incubated for 6 days by resazurin reduction microplate assay. The class given is functional. To be noted: 144 h, time 6 day.
In assay [6] the test system is Mycobacterium tuberculosis. As to the kind of experiment: Antitubercular activity against Mycobacterium tuberculosis H37Rv assessed as bacterial growth inhibition by REMA analysis. The assay is classed as functional.
The test system of assay [7] is Mycobacterium tuberculosis. As to the kind of experiment: Antitubercular activity against Mycobacterium tuberculosis H37Rv assessed as bacterial growth inhibition incubated for 7 days by resazurin reduction microplate assay. The assay is classed as functional. The note with it: 168 h, time 7 day.
Assay [8] has as its system Mycobacterium tuberculosis. The assay can be described thus: Antitubercular activity against Mycobacterium tuberculosis H37Rv infected in human THP-1 cells assessed as bacterial growth inhibition incubated for 48 hrs by PrestoBlue staining based fluorescence analysis. The assay is classed as functional, organism-based. The note with it: THP-1, 48 h.
Assay [9] relates to Mycobacterium tuberculosis. As to the kind of experiment: Antitubercular activity against Mycobacterium tuberculosis H37Rv ATCC25618 assessed as bacterial growth inhibition incubated for 6 days by resazurin based fluorescence analysis. The assay is classed as functional. To be noted: H37Rv ATCC25618, 144 h, time 6 day.
For assay [10], the system named is Mycobacterium tuberculosis. As to the kind of experiment: Antimycobacterial activity against Mycobacterium tuberculosis H37Rv ATCC27294 assessed as bacterial growth inhibition incubated for 7 days by microplate Alamar blue assay. The assay is classed as functional. The note with it: H37Rv ATCC27294, 168 h, time 7 day.
Assay [11] relates to Mycobacterium tuberculosis. The assay can be described thus: Antitubercular activity against Mycobacterium tuberculosis H37Rv ATCC 27294 infected in mouse J774 cells assessed as intracellular bacterial growth inhibition incubated for by resazurin microtiter assay. The assay is classed as functional.
The subject of assay [12] is Mycobacterium tuberculosis. As to the kind of experiment: Antitubercular activity against Mycobacterium tuberculosis H37Rv ATCC 27294 assessed as bacterial growth inhibition by resazurin microtiter assay. The assay is classed as functional.
Assay [13] relates to Mycobacterium tuberculosis. The assay can be described thus: Antitubercular activity against Mycobacterium tuberculosis assessed as bacterial growth inhibition. The assay is classed as functional.
In assay [14] the test system is Mycobacterium tuberculosis. The assay can be described thus: Antitubercular activity against Mycobacterium tuberculosis H37Rv infected in human HepG2 cells assessed as reduction in colony forming unit by CFU analysis. The assay is classed as functional, organism-based.
In assay [15] the test system is Mycobacterium tuberculosis. As to the kind of experiment: Antitubercular activity against Mycobacterium tuberculosis H37Rv infected in human monocyte macrophage assessed as bacterial growth inhibition and measured after 21 days by colony counting based analysis. The assay is classed as functional. To be noted: 504 h, time 21 day.
The subject of assay [16] is Mycobacterium tuberculosis. The assay can be described thus: In vivo antimycobacterial activity against Mycobacterium tuberculosis H37Rv infected in BALB/c mouse assessed as reduction in log10 CFU in lungs at 12.5 mg/kg, po and measured after 4 weeks. The assay is classed as functional.
The subject of assay [17] is Mycobacterium tuberculosis. The assay can be described thus: In vivo antimycobacterial activity against Mycobacterium tuberculosis H37Rv infected in BALB/c mouse assessed as reduction in log10 CFU in lungs at 50 mg/kg, po and measured after 4 weeks. The class given is functional.
The subject of assay [18] is Mycobacterium tuberculosis. The assay can be described thus: Antitubercular activity against Mycobacterium tuberculosis H37Rv assessed as bacterial growth inhibition incubated for 6 days by resazurin based fluorescence assay. The class given is functional. To be noted: 144 h, time 6 day.
The subject of assay [19] is Mycobacterium tuberculosis. As to the kind of experiment: Antitubercular activity against Mycobacterium tuberculosis H37Rv assessed as bacterial growth inhibition incubated for 24 hrs by [14C]-acetate labelling based radiometric analysis. The assay is classed as functional.

`FC(F)(F)c1ccc2c(c1)N(CCC[P+](c1ccccc1)(c1ccccc1)c1ccccc1)c1ccccc1S2.[Cl-]`: the MIC50 in [1] was determined as 1 mg/L.

With `CNC(=O)c1c(-c2ccccc2)oc2ccc(O)c(CN3CCCCC3)c12`, the minimal inhibitory concentration (MIC) in assay [2] is 0.2 µM (≈ 0.0729 µg/mL). As to `O=c1nc(N2CCN(S(=O)(=O)c3cccs3)CC2)sc2c([N+](=O)[O-])cc(C(F)(F)F)cc12`, in [3], the minimum inhibitory concentration (MIC) is 0.004 mg/L (≈ 0.0079 µM). `O=C(/C=C/c1ccsc1)N1CCN(Cc2ccc3c(c2)OCO3)CC1`: in assay [4], the IC50 was 0.3 mg/L (≈ 0.842 µM). Moreover, the MIC in assay [5] amounted to 0.1 mg/L (≈ 0.281 µM).

Turning to `CCCCCCCN1CCN(c2nc(=O)c3cc(C(F)(F)F)cc([N+](=O)[O-])c3s2)CC1`, the minimum inhibitory concentration (MIC) in [6] came to 0.00019 mg/L (≈ 0.000414 µM).

On to `CCSc1nc(NC)c2ccccc2n1`, for which the MIC in assay [7] was determined as 0.09 mg/L (≈ 0.41 µM). Moreover, the IC50 in assay [8] was 0.012 mg/L (≈ 0.0547 µM). Take `CCNc1nc(SCC)nc2ccccc12`: the minimum inhibitory concentration (MIC) in assay [7] was 0.05 mg/L (≈ 0.214 µM). In addition, the IC50 in assay [8] came to 0.011 mg/L (≈ 0.0471 µM).

With `O=c1nc(N2CCN(S(=O)(=O)C3CC3)CC2)sc2c([N+](=O)[O-])cc(C(F)(F)F)cc12`, in [3], the MIC stood at 0.003 mg/L (≈ 0.00646 µM). `CCS(=O)(=O)N1CCN(c2nc(=O)c3cc(C(F)(F)F)cc([N+](=O)[O-])c3s2)CC1`: the MIC in assay [3] is 0.003 mg/L (≈ 0.00663 µM). Regarding `O=c1nc(N2CCN(CCCCOc3ccccc3)CC2)sc2c([N+](=O)[O-])cc(C(F)(F)F)cc12`, the MIC in assay [6] is 0.0015 mg/L (≈ 0.00295 µM). In the case of `CCCCCc1ccc(NC(=O)COc2cc(C)nc3ccc(OC)cc23)cc1`, in assay [9], the MIC came to 0.02 mg/L (≈ 0.051 µM). For the molecule `CSc1ccc2c(c1)N(CCC1CCCCN1C)c1ccccc1S2` (configuration not stated) [THIORIDAZINE], in assay [1], the MIC was found to be 15 mg/L. Take `O=C(/C=C/c1nccs1)N1CCN(Cc2ccc3c(c2)OCO3)CC1`: the IC50 in [8] worked out at 1.8 mg/L (≈ 5.04 µM). Further, in assay [5], the MIC worked out at 0.3 mg/L (≈ 0.839 µM). `O=c1nc(N2CC3CN(Cc4ccc(Cl)c(F)c4)CC3C2)sc2c([N+](=O)[O-])cc(C(F)(F)F)cc12` (configuration not stated): the minimum inhibitory concentration (MIC) in [10] is less than 0.035 µM. Regarding `CC1(C)CC(=O)C(=CNc2ccccc2O)C(=O)C1`, the MIC in assay [11] turned out to be 8 mg/L (≈ 30.9 µM). In addition, the MIC90 in assay [12] worked out at 7 mg/L (≈ 27 µM). On to `CC(C)/N=c1\cc2n(-c3ccc(Cl)cc3)c3ccccc3nc-2cc1Nc1ccc(Cl)cc1` [CLOFAZIMINE], for which the MIC in [1] was determined as 0.12 mg/L. Same read-out and setting: as for `NC(=O)c1cnccn1` [PYRAZINAMIDE], the figure is 3.12 mg/L. For `CN(C)CCCN1c2ccccc2Sc2ccc(Cl)cc21` [CHLORPROMAZINE], the MIC in [13] amounted to 25 mg/L (≈ 78.4 µM).

For `COc1ccc(CNc2nc3cc(C(F)(F)F)ccc3nc2C(=O)O)cc1`, the IC50 in [14] was 2.5 µM. Besides, the MIC99 in assay [6] is 3.1 µM (≈ 1.17 µg/mL). For the molecule `Cc1cc2nc(CCC3CCCCC3)[nH]c2cc1C`, in [15], the MIC99 worked out at 0.145 µM (≈ 0.0372 µg/mL).

With `CC1(C)CCC(NC(=O)c2cc3c(F)cc(F)cc3[nH]2)CC1`, the Activity amounted to 0.9 log10CFU in assay [16] and 3.4 log10CFU in assay [17].

`CN1CCN(CCCN2c3ccccc3Sc3ccc(C(F)(F)F)cc32)CC1` [TRIFLUOPERAZINE]: the MIC in assay [13] is 5 mg/L (≈ 12.3 µM). On to `c1cc2c(s1)CCOC21CCN(Cc2ccc3c(c2)OCCO3)CC1`, for which the MIC in assay [18] was 0.38 µM (≈ 0.136 µg/mL). Turning to `O=c1nc(N2CC3CN(Cc4ccc(OC(F)(F)F)cc4)CC3C2)sc2c([N+](=O)[O-])cc(C(F)(F)F)cc12` (configuration not stated), the minimal inhibitory concentration (MIC) in [10] is less than 0.035 µM. As for `Clc1ccc2c(c1)N(CCC[P+](c1ccccc1)(c1ccccc1)c1ccccc1)c1ccccc1S2.[Cl-]`, the MIC in assay [13] is 1 mg/L.

For the molecule `O=c1nc(N2CCC3(CCN(Cc4ccc(F)cc4)C3)CC2)sc2c([N+](=O)[O-])cc(C(F)(F)F)cc12`, the MIC in [10] was less than 0.035 µM. Take `CCc1nc2ccc(Cl)cn2c1C(=O)NCc1ccc(N2CCC(c3ccc(OC(F)(F)F)cc3)CC2)cc1` [TELACEBEC]: the MIC in [1] worked out at 0.0027 µM. With `CCc1ccc([C@H]2C[C@@H](C(F)(F)F)n3ncc(C(=O)NCc4ccc5c(c4)OCO5)c3N2)cc1`, in assay [19], the MIC was found to be 0.16 µM (≈ 0.0756 µg/mL). Consider `CCOC(=O)c1nc2ccc(C(F)(F)F)cc2nc1NCc1ccc(OC)cc1`, for which the IC50 in assay [14] turned out to be 6.1 µM. For the same molecule, the MIC99 in assay [6] is 3.1 µM (≈ 1.26 µg/mL).
